From patent publication EP1120414A1, “DISUBSTITUTED MALEIMIDE COMPOUNDS AND MEDICINAL UTILIZATION THEREOF” (Japan Tobacco Inc., priority 1998, dated 2000)
pIC50: −log10 of the molar value. Like-named read-outs stand apart in the source and are kept apart here.

What was measured:
[1] = target: T1, PKC β II (Homo sapiens, UniProt P05771); assay: PKC enzyme assay (BIOTRAK Protein kinase C enzyme assay system, 32P-ATP phosphorylation of peptide […]); assay type: biochemical
T1 construct: purchased CALBIOCHEM

[2] = target: T2, PKC α (Homo sapiens, UniProt P17252); assay: as above; assay type: biochemical; settings: read-out: Inhibition of PKC activity IC50 PKC α; Protein Kinase C, Human Recombinant; test substance 1 nM-10 µM; 37°C, 15 minutes
T2 construct: purchased CALBIOCHEM
Summary of the method: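 Recombinant human PKC (400 ng/ml solution) phosphorylated the supplied peptide with [γ-32P]ATP in calcium, phosphatidylserine/PMA, DTT and Mg-ATP buffer, 15 min at 37°C. Compounds were tested at 1 nM-10 µM final. Phosphocellulose-bound radioactivity relative to DMSO gave inhibition, from which IC50 was calculated.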

[3] = read-out: Inhibition of PKC activity IC50 PKC β II; Protein Kinase C, Human Recombinant; test substance 1 nM-10 µM; 37°C, 15 minutes
[4] = Protein Kinase C, Human Recombinant; test substance 1 nM-10 µM; 37°C, 15 minutes; read-out: Inhibition of PKC activity IC50 PKC β II

T1 sequence (P05771 other isoform, or with tags, fused parts or gaps): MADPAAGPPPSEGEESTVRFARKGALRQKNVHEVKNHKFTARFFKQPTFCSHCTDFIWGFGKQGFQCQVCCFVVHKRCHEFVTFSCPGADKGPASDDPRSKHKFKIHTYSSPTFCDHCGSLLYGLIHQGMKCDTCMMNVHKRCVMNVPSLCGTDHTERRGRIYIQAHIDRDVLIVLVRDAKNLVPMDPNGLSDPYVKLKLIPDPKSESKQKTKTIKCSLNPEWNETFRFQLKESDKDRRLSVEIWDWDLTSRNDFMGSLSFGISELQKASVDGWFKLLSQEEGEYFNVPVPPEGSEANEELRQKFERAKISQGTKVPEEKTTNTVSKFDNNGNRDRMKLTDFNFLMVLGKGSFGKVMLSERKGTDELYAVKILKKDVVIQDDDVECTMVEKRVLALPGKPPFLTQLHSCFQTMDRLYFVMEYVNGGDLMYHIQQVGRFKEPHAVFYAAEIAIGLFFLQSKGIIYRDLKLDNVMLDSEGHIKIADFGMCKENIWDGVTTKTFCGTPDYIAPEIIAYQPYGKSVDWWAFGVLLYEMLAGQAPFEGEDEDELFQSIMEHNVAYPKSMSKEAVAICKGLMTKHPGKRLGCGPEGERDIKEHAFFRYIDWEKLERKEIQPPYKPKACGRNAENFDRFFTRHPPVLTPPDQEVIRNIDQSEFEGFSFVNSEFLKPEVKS

Structure (SMILES) | Ratio α/β ([1]; IC50 PKC α / IC50 PKC β II) | pIC50 [1, 3] | pIC50 [2] | pIC50 [1, 4]
CCN(C)C[C@H]1Cc2c(C3=C(Nc4ccc(OC)cc4)C(=O)NC3=O)c3ccccc3n2C1 [Example 4-63] | 69 | 7.80 | 5.96 | 
CN(C)C[C@H]1Cc2c(C3=C(Nc4ccccc4)C(=O)NC3=O)c3ccccc3n2C1 [Example 4-64] | 37 |  | 6.83 | 8.40
CCN(CC)C[C@H]1Cc2c(C3=C(Nc4ccccc4)C(=O)NC3=O)c3ccccc3n2C1 [Example 4-65] | 61 |  | 5.71 | 7.49
CCN(C)C[C@H]1Cc2c(C3=C(Nc4ccc(F)cc4)C(=O)NC3=O)c3ccccc3n2C1 [Example 4-66] | 53 | 7.92 | 6.20 | 
O=C1NC(=O)C(c2c3n(c4ccccc24)C[C@@H](CN2CCCC2)C3)=C1Nc1ccccc1 [Example 4-67] | 68 |  | 6.27 | 8.10
O=C1NC(=O)C(c2c3n(c4ccccc24)C[C@@H](CO)C3)=C1Nc1ccc(F)cc1 [Example 4-68] | 85 | 8.40 | 6.47 | 
CN(C)C[C@H]1Cc2c(C3=C(Nc4ccc(F)cc4)C(=O)NC3=O)c3ccccc3n2C1 [Example 4-69] | 76 | 8.22 | 6.34 | 
CNC[C@H]1Cc2c(C3=C(Nc4ccccc4)C(=O)NC3=O)c3ccccc3n2C1 [Example 4-70] | 159 | 9.00 | 6.80 | 
O=C1NC(=O)C(c2c3n(c4ccccc24)C[C@@H](CN2CCOCC2)C3)=C1Nc1ccccc1 [Example 4-71] | 108 | 7.39 | 5.35 | 
